Measured values reported in US8173710B2, “Bicyclic sphingosine 1-phosphate analogs” (University of Virginia Patent Foundation, priority 2006, dated 2012).

Columns and labels:
Heart rate assay = format: in vivo; details: IV dosing, 3 mg/kg, 1 hour post dosing, vehicle 2% cyclodextrin, conscious mice, FIG. 11
Method: Mice were dosed with compound VIII, FTY720 (intravenous, 3 mg/kg) or vehicle (2% hydroxypropyl beta-cyclodextrin) and heart rate measured at 1 hour post dosing. Heart rate was captured in unrestrained, conscious animals using the ECGenie™ system. The results are illustrated in FIG. 11.

human S1P1 receptor = biological target: T1, human S1P1 receptor (Homo sapiens, UniProt P21453); assay: GTPγS-35 binding assay (broken cell), S1P1; format: biochemical; details: FIG. 7, compared with S1P
T1 construct: expressed in transfected cells; host or cells: HEK293T cells (crude microsomes)
Method: (§1) This assay illustrates agonist activation of G protein coupled receptors (GPCRs) in isolation. The assay forces expression concomitantly of a recombinant GPCR (e.g., the S1P1-5 receptor) and each of the three subunits (typically, α-2, β-1, or γ-2) of a heterotrimeric G protein in a HEK293T cell by transfecting the cell with four plasmid DNAs encoding the respective proteins. About 60 hours after transfection the cells are harvested, opened, and the nucleus discarded. The crude microsome is prepared from the remainder. Agonist (e.g., S1P) stimulation of the receptor-G protein complex on the microsomes results in the exchange of GTP for GDP on the α-subunit in a dose-dependent manner. The GTP-bound a-subunit is detected using a GTP analog (GTPγS-35), which is a radionuclide (sulfur-35) labeled phosphothioate that is not hydrolyzed to GDP. The microsomes with the adherent G proteins are collected by filtration and the bound GTPγS-35 quantified in a liquid scintillation counter. The assay yields relative potency (EC50 values) and maximum effect (efficacy, Emaxa Antagonist activity is detected as rightward shifts in the agonist dose-response curve in the presence of a fixed amount of antagonist. If the antagonist behaves competitively, the affinity of the receptor/antagonist pair (K1) can be determined. […]

S1P3 receptor = biological target: T2, S1P3 receptor (Homo sapiens, UniProt Q99500); assay: GTPγS-35 binding assay (broken cell), S1P3; format: biochemical
T2 construct: expressed in transfected cells; host or cells: HEK293T cells (crude microsomes)
Method: as §1

T2 sequence (Q99500 whole entry): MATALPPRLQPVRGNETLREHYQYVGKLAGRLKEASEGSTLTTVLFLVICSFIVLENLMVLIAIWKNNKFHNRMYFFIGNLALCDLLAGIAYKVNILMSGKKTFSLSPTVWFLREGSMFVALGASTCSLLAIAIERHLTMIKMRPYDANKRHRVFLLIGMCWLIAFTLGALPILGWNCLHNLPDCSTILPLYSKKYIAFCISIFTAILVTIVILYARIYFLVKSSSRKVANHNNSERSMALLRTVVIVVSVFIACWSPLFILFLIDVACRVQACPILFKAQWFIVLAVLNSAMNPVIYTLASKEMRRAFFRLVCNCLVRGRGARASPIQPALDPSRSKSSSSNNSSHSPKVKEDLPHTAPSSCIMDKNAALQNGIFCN
T2 sequence (P04899 whole entry partner): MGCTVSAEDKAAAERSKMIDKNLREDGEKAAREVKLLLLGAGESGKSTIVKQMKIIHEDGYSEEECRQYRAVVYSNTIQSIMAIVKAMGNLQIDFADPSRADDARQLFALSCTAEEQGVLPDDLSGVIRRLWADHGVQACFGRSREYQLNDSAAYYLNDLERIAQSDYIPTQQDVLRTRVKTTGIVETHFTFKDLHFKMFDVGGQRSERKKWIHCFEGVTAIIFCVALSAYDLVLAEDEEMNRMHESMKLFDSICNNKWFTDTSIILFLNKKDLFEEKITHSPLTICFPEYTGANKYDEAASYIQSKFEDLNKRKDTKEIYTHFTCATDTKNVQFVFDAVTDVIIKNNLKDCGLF
T2 sequence (P62873 whole entry partner): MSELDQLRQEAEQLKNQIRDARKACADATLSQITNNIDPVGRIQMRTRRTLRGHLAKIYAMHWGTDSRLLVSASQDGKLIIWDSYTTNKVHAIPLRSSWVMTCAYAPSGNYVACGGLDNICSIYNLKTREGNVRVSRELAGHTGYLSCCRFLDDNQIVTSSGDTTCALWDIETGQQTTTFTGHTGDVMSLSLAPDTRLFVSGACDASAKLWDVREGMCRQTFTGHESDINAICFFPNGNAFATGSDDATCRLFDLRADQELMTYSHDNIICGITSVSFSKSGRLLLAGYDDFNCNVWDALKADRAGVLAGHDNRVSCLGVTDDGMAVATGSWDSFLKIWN
T2 sequence (P59768 2-68 partner limits assumed): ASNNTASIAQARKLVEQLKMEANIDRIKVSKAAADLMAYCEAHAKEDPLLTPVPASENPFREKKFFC
T1 sequence (P21453 whole entry): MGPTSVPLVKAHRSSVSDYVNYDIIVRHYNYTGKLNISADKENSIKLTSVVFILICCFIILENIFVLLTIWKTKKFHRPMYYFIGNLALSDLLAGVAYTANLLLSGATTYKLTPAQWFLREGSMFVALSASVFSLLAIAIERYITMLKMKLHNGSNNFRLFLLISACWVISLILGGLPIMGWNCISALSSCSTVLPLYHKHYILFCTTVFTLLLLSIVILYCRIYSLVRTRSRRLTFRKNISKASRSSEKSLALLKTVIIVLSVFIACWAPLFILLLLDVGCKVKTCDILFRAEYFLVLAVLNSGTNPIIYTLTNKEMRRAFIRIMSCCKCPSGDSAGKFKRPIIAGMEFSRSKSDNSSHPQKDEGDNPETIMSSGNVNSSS
T1 sequence (P04899 whole entry partner): as the sequence (P04899 whole entry partner) above
T1 sequence (P62873 whole entry partner): as the sequence (P62873 whole entry partner) above
T1 sequence (P59768 2-68 partner limits assumed): as the sequence (P59768 2-68 partner limits assumed) above

SMILES | effect on the heart rate of mice (Heart rate assay) | potency at S1P1 relative to S1P (human S1P1 receptor) | agonist activity at the S1P3 receptor (S1P3 receptor; FIG. 8, XXVI and XXVII tested as mixture of phosphorylated forms of compound VIII) | potency at S1P3 relative to S1P (S1P3 receptor; compared with S1P)
CCCCCCCCc1ccc2c(c1)CCC(C(N)(CO)CO)C2 (stereo not shown) [VIII, 2-Amino-2-(6-octyl-1,2,3,4-tetrahydro-naphthalen-2-yl)-propane-1,3-diol] | no effect | – | – | –
CCCCCCCCc1ccc2c(c1)CCC(C(N)(COP(=O)(O)O)COP(=O)(O)O)C2 (stereo not shown) [XXVII, Phosphoric acid mono-[2-amino-2-(6-octyl-1,2,3,4-tetrahydro-naphthalen-2-yl)-3-phosphonooxypropyl] ester] | – | more potent | low potency, partial agonists | less potent
